System: Aβ42 protein aggregation in HEK-293-Aβ42-mCherry cells
Test: Activity experiment of inhibiting Aβ42 protein aggregation in vitro (IncuCyte Zoom live cell imaging, tetracycline induction)
Type: cell-based
Settings: compared with model group, 72 hours after tetracycline, p<0.01 (FIG. 5)
Source text: In the specific embodiments, in an application process of the polypeptide with the function of inhibiting Aβ42 protein aggregation according to the present invention, a mechanism of inhibiting AD senile plaque by the polypeptide is first researched through a visual in-vitro cell model test. Specifically, an amino acid sequence of a core component of senile plaque—an Aβ42 protein (the 22nd amino acid in a sequence of 42 amino acids—glutamic acid is mutated into glycine) is stably transferred into HEK-293 cells, so that it is stably expressed in the HEK-293 cells to form a cell model of abnormal Aβ protein aggregation, and then tetracycline is added to induce the Aβ protein to form a red fluorescent protein and emit red fluorescent light for positioning and quantifying the expression of the Aβ42 protein; and then, the polypeptide with the function of inhibiting Aβ42 protein aggregation according to the present invention is added, and a HEK293 cell model transfected with an Aβ42-red fluorescent labeling gene is used for evaluation, thus proving that the polypeptide has a remarkable activity of inhibiting Aβ42 protein aggregation. […]

Pro-Pro-Lys-Asn-Trp (PPLAT) [PW-5]
Aβ42 protein aggregation rate (PW-5 high-dose group 0.5 mM, effect more significant than low-dose group): significantly reduced
Aβ42 protein aggregation rate (PW-5 low-dose group 0.05 mM): significantly reduced

From patent US20200299328A1, “POLYPEPTIDE WITH FUNCTION OF INHIBITING ABETA 42 PROTEIN AGGREGATION AND USE THEREOF, AND GENE ENCODING THE POLYPEPTIDE” (SOUTH CHINA UNIVERSITY OF TECHNOLOGY, priority 2018, published 2020)
